# Measurements from US20210361600A1, “METHODS FOR INDUCING CHONDROGENESIS” (THE SCRIPPS RESEARCH INSTITUTE, priority 2017, published 2021).
# Where “and” joins values, the source holds several entries; their conditions need not be identical. Equal entries are not always repeated. Entries after “also recorded” stand apart in the source; their conditions may differ. Where two headings read alike, the source gives them in different places.
# What was measured:
# [1] = tested on: Canine Model of Osteoarthritis; experiment: Efficacy of compound A in a canine model of osteoarthritis; format: in vivo, Beagle dogs
# Experimental: The clear solution was then filtered in a 0.45 μm filter prior to intraarticular dose. Dosing solution was prepared fresh on the day of dosing.
# Twelve to fifteen-month-old female naïve Beagle dogs were obtained from Marshall BioResouces (North Rose, N.Y.) with a weight range of 5.4 to 9.3 kilograms.
# The goal was to sort and ensure that behavioral characteristics were shared among all groups, so that the activity level and use of the joints while not in regimented exercise would be uniform between groups. In addition to sorting by temperament, animals were also sorted by body weights, with equal distribution between study groups. Animals were acclimated to an exercise regimen of 1 hour of walking/running/playing prior to study start.
# Animals were food deprived prior to surgery, anesthetized using propofol (6 mg/kg, IV), and maintained on isoflurane (3-4%) in oxygen (2 L/min) for the duration of the procedure (10-15 minutes). The right rear knee was shaved and aseptically prepared. A medial skin incision was made to expose the collateral ligament. A portion of the medial meniscus was cut (a wedge roughly half the width of the medial meniscus was removed). The joint capsule and subcutis were closed with sutures, and skin closed with wound clips. Sham animals were treated in the same manner except for the medial meniscus partial transection. All animals were allowed to recover for 10-11 days prior to dosing. Three days after surgery, all animals began an exercise regimen of one hour of continuous exercise (walking/running/playing), to ensure that the animals were using the surgerized leg and to allow for a more uniform development of lesions across a group of differently tempered dogs.
# (§3) All animals were exercised 5 days a week for an hour for the duration of the study. At study day 10/11, animals began receiving weekly injections of either compound or vehicle into the surgerized joint. Blood samples were also taken pre-dose for all animals for compound determination. Animals received doses at day 10, 17, 24, 31, 38, and 45 post surgery. All intraarticular doses were standardized to 0.5 mL injections into the joint capsule via injection through the patellar ligament.
# On day 52, animals received a terminal blood sample and were euthanized. Plasma samples were used for biomarker determination. Urine and synovial fluid was collected at necropsy, and the knees were harvested for histology and pathology analysis.
# Osteoarthritic lesions were scored based on lesion size, depth, severity and changes in subchondral bone and osteophyte formation. Both the femur and the tibia on either side of the meniscal cut were examined. Statistical analysis used Student's two-tailed test or Mann-Whitney U Test (non-parametric).
# For terminal plasma samples, biomarker ELISAs were run to quantify levels of PIINP. The kit procedures were followed as per manufacturer's instructions. Data were analyzed with a Student's t-test.
# [2] = Intra-articular single dose pharmacokinetics study in rat; format: in vivo; conditions: for concentration in the knee: 1.05 μg/knee
# [3] = Final dose PK in the canine osteoarthritis study; format: in vivo, Beagle dogs
# Experimental: Acetonitrile, water (Optima, LC/MS Grade) and formic acid, 99+% (Optima, LC/MS Grade) were purchased from Fisher Scientific. […] Chromatography HPLC column, Luna, 5 um C18 (2), 50×2.0 mm and its guard security cartridge and holder were purchased from Phenomenex. HPLC (1100 Series) was purchased from Agilent. The Mass Spectrometer system, API 3000 was purchased from SCIEX. Separation was performed on a reversed phase C18 column with a gradient elution using mobile phases of 0.1% formic acid in water (A) and 0.1% formic acid in acetonitrile (B) with flow rate at 0.6 mL/min.
# Supernatant was then diluted with 0.1% formic acid in water solvent and injected onto LC-MS-MS system.
# as §3
# Female Beagles underwent medial meniscal tear surgery to induce osteoarthritis.
# [4] = dog, in vivo
# Human MSCs = experiment: Human chondrocyte differentiation assay; format: cell-based; conditions: 7 days; type II collagen, Sox9 and COMP immunostaining
# Experimental: Human MSCs (50,000) were plated into each well of a 96-well plate and cultured overnight. […] The cells were fixed with 10% formalin solution at room temperature for 10 min, and immunostained using antibodies specific for type II collagen (Abcam), Sox9 (Santa Cruz) and cartilage oligomeric matrix protein (COMP, Santa Cruz), and fluorescently labeled secondary antibodies (Li-Cor). The total intensity of the staining was measured using Oddyssey CLx imaging system (Li-Cor). Vehicle (DMSO) was used as control to determine the basal level of chondrocyte differentiation. The result is shown in Table 1 [A: >50% increase in staining intensity compared to vehicle control; B: 30-50% increase in staining intensity compared to vehicle control].
# in vivo = conditions: male, Crl:CD(SD), rat, 2.1 ug
# SOX9 = experiment: In vitro chondrogenesis, transcript level by qPCR; format: cell-based, human; conditions: for Induction of SOX9: 7-day treatment
# Experimental: (§1) The RNA was exacted using RNeasy kit following the manufacturer's protocol. cDNA was synthesized using SuperScript III first strand synthesis kit and the transcript levels of proteoglycan 4 (PRG4), sex-determining region Y-Box 9 ([…]) and cartilage-oligo matrix protein (COMP) were determined using Taqman gene expression assays (probes) from ThermoFisher.
# (§2) ΔΔCT method was applied to calculate the relative abundance of each gene using ([…] as normalizing control using ViiA 7 RUO software (ThermoFisher). The abundance of each gene of each sample was expressed as fold over DMSO-treated controls. n=3. Dose response for each marker gene was analyzed using GraphPad Prism 7 software.
# [5] = tested on: cartilage-oligo matrix protein (COMP); experiment: In vitro chondrogenesis, transcript level by qPCR; format: cell-based, human; conditions: for Induction of COMP: 7-day treatment
# Experimental: as §1, §2
# proteoglycan 4 (PRG4) = experiment: In vitro chondrogenesis, transcript level by qPCR; format: cell-based, human; conditions: for Induction of PRG4: 7-day treatment
# Experimental: as §1, §2
# [6] = 0.035 mg/knee IA weekly for 6 weeks, vs vehicle
# [7] = rat, plasma, 1.05 ug, single IA dose 1.05 μg/knee
# [8] = female Beagles, 35 μg IA weekly, after 6th dose, plasma, individual animals 1-6
smiles,measurement,setting,value
"COCCc1ccc(NC(=O)c2ccccc2NS(C)(=O)=O)cc1 [Compound A, N-(4-(2-methoxyethyl)phenyl)-2-(methylsulfonamido)benzamide]",degree of substantial cartilage degeneration in the femur,[1]; [6],significantly improved; also recorded: significant reduction
same,level of bone sclerosis,[1]; [6],reduced; also recorded: improved
same,"width of total cartilage degeneration (all severities), femur",[1]; [6],no effect
same,tibial cartilage damage,[1]; effect not statistically significant,less severe
same,circulating PIINP in plasma (ELISA),"[1]; terminal samples 1 week post final dose, vs vehicle",significantly elevated
same,concentration in the knee,[2]; 120 minutes after single IA injection,LLQ
same,concentration in the knee,[2]; immediately after single IA injection,925.5 ng/mL
same,AUC(0-inf),[2]; [7],33.9 ng·h/mL
same,Cmax,[2]; [7],53.3 ng/mL
same,half-life,"[2]; rat, plasma, 1.05 ug, single IA dose 1.05 μg/knee, read-out: plasma t1/2 (converted)",28.9 min
same,plasma exposure after the final dose,[3]; 1 hour after IA administration,undetectable
same,Cmax,"[3]; female Beagles, 35 μg (0.035 mg/knee) IA weekly, after 6th dose, plasma, individual animals 1-6",2.22 ng/mL and 2.64 ng/mL and 1.87 ng/mL and 2.26 ng/mL and 1.08 ng/mL and 1.54 ng/mL
same,Tlast,"[3]; female Beagles, 35 μg IA weekly, after 6th dose, plasma, Mean",2.3 h
same,AUC 0-τ,[3]; [8],2.28 ng·h/mL and 3.14 ng·h/mL and 2.12 ng·h/mL and 3.58 ng·h/mL and 1.15 ng·h/mL and 1.87 ng·h/mL
same,Tlast,[3]; [8],2.0 h (5×) and 4.0 h
same,AUC,"[3]; female, beagle, dog, plasma, 0.035 mg/knee, female Beagles, 35 μg IA weekly, after 6th dose, plasma, Mean, read-out: AUC 0-τ",2.36 ng·h/mL
same,Cmax,"[3]; female, beagle, dog, plasma, 0.035 mg/knee, female Beagles, 35 μg IA weekly, after 6th dose, plasma, Mean, read-out: Cmax",1.94 ng/mL
same,time up to which quantifiable in the plasma of all animals,"[4]; both, beagle, iv, 1.25 mg/kg",at least 12 hours
same,gender differences in systemic exposure (Cmax and AUC0-t),[4],no significant gender differences
same,differences in systemic exposure following single and repeat weekly IV administration,[4]; iv,no significant differences
same,Cmax,"[4]; female, Beagle, iv, 0.125 mg/kg",209 ng/mL
same,Cmax,"[4]; female, Beagle, iv, 0.6 mg/kg",1190 ng/mL
same,AUC(0-t),"[4]; female, Beagle, iv, 1.25 mg/kg",2300 ng·h/mL
same,Cmax,"[4]; female, Beagle, iv, 1.25 mg/kg",2480 ng/mL
same,AUC(0-t),"[4]; male, beagle, iv, 0.125 mg/kg",211 ng·h/mL
same,Cmax,"[4]; male, beagle, iv, 0.125 mg/kg",197 ng/mL
same,AUC(0-t),"[4]; male, beagle, iv, 0.6 mg/kg",1400 ng·h/mL
same,Cmax,"[4]; male, beagle, iv, 0.6 mg/kg",1140 ng/mL
same,AUC(0-t),"[4]; male, beagle, iv, 1.25 mg/kg",2510 ng·h/mL
same,Cmax,"[4]; male, beagle, iv, 1.25 mg/kg",2150 ng/mL
same,Biological Activity (increase in staining intensity compared to vehicle control),Human MSCs,A (>50% increase in staining intensity compared to vehicle control)
same,Cmax,in vivo,13.8 ng/mL
same,Induction of SOX9,SOX9; 0.457 nM,1.022 ± 0.231 fold increase
same,Induction of SOX9,SOX9; 1.37 nM,1.002 ± 0.260 fold increase
same,Induction of SOX9,SOX9; 4.11 nM,3.296 ± 0.719 fold increase
same,Induction of SOX9,SOX9; 12.3 nM,2.505 ± 0.242 fold increase
same,Induction of SOX9,SOX9; 37.0 nM,1.768 ± 0.264 fold increase
same,Induction of SOX9,SOX9; 111 nM,1.977 ± 0.721 fold increase
same,Induction of SOX9,SOX9; 333 nM,4.193 ± 0.765 fold increase
same,EC50,"SOX9; 168 h, primary human MSCs, 7 days, read-out: EC50 (SOX9 induction)",~2.2 nM
same,Induction of COMP,[5]; 0.457 nM,1.005 ± 0.100 fold increase
same,Induction of COMP,[5]; 1.37 nM,0.776 ± 0.107 fold increase
same,Induction of COMP,[5]; 4.11 nM,1.322 ± 0.804 fold increase
same,Induction of COMP,[5]; 12.3 nM,2.942 ± 0.575 fold increase
same,Induction of COMP,[5]; 37.0 nM,1.356 ± 0.590 fold increase
same,Induction of COMP,[5]; 111 nM,0.706 ± 0.193 fold increase
same,Induction of COMP,[5]; 333 nM,1.896 ± 0.187 fold increase
same,Induction of COMP,[5]; 1000 nM,3.121 ± 0.709 fold increase
same,EC50,"[5]; 168 h, primary human MSCs, 7 days, read-out: EC50 (COMP induction)",~4.5 nM
same,Induction of PRG4,proteoglycan 4 (PRG4); 0.457 nM,1.082 ± 0.493 fold increase
same,Induction of PRG4,proteoglycan 4 (PRG4); 1.37 nM,0.582 ± 0.513 fold increase
same,Induction of PRG4,proteoglycan 4 (PRG4); 4.11 nM,1.795 ± 0.561 fold increase
same,Induction of PRG4,proteoglycan 4 (PRG4); 12.3 nM,2.226 ± 0.378 fold increase
same,Induction of PRG4,proteoglycan 4 (PRG4); 37.0 nM,1.204 ± 0.360 fold increase
same,Induction of PRG4,proteoglycan 4 (PRG4); 111 nM,1.024 ± 0.700 fold increase
same,Induction of PRG4,proteoglycan 4 (PRG4); 333 nM,2.22 ± 0.960 fold increase
same,Induction of PRG4,proteoglycan 4 (PRG4); 1000 nM,2.134 ± 0.785 fold increase
same,EC50,"proteoglycan 4 (PRG4); 168 h, primary human MSCs, 7 days, read-out: EC50 (PRG4 induction)",~3.9 nM
